Test results as given in patent US11208400B2, “Substituted 6-(1H-pyrazol-1-yl)pyrimidin-4-amine derivatives and uses thereof” (Bayer Aktiengesellschaft, priority 2016, dated 2021).

Target: T1, human Npt2a (Homo sapiens, UniProt Q06495)
T1 construct: expressed in transfected cells
T1 sequence (Q06495 1-639): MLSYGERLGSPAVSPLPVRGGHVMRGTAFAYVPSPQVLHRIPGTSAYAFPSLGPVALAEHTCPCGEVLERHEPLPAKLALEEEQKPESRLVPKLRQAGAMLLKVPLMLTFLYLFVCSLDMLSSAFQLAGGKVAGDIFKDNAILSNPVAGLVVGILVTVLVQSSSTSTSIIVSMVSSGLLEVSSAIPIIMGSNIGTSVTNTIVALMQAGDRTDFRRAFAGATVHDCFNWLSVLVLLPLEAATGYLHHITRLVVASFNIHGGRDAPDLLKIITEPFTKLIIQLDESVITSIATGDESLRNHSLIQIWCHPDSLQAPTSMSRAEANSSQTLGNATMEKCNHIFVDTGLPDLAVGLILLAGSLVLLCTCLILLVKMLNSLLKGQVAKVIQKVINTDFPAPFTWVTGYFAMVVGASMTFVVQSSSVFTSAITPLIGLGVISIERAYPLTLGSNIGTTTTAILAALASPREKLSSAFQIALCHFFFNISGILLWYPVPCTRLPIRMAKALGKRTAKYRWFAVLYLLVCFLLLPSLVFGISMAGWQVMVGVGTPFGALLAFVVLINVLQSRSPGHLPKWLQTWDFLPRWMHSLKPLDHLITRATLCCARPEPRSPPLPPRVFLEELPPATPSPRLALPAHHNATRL
Assay: Npt2a activity cell based assay, membrane potential dye, CHO T-REx hNpt2a cells
Details: doxycycline-induced, depolarization by sodium phosphate influx, average or median values if tested more than once
Procedure: For measuring Npt2a activity in a cell based assay, a stable CHO cell line with inducible Npt2a expression was generated. Therefore, CHO T-Rex cells (life technologies cat. R718-07) were stably transfected with doxycycline-inducible human NPT2a (pcDNA5TO-hNpt2a). The obtained CHO T-REx hNpt2a cells were routinely cultured in Dulbecco's MEM/F12 (4.5 g/l Glucose, Gibco cat. 21331-020; 500 mL) supplemented with 10 ml Glutamax 100×, Sodium pyruvate (7 mL of 100 mM solution), HEPES (10 mL of 1 M solution), Sodium bicarbonate (10 mL of 7.5% solution), 10% Fetal Bovine Serum Tetracycline free (Clontech cat. 631106, 500 ml), Penicillin-Streptomycin (5 mL of 100× Solution), Blasticidin 10 μg/mL and 400 μg/mL Hygromycin.
Activity of Npt2a was detected by following depolarization of cellular membrane potential by influx of sodium phosphate using fluorescent membrane potential dye kit BLUE (Molecular devices cat. R8034). For Npt2a activity measurements, CHO T-Rex hNpt2a cells were seeded into 1536 well microtiter plates (GREINER Bio-One cat. 782092) with 750 cells/well in 7 μL/w of complete medium (2% Tetracycline-free FBS, 2% Poly-D-Lysine) without selective agents+Doxycycline 0.5 μg/mL to induce Npt2a gene expression, and grown for 24 h at 37° C., 5% carbon dioxide.
On the day of experiment a 1×MPdye Loading Solution was freshly prepared by re-suspending 15 mg of Blue MPdye powder in 10 mL of NHE buffer sodium-free (140 mM N-Methyl-D-glucamine, 5.4 mM KCl, 1 mM CaCl2, 11 mM D(±)-Glucose water free, 1.2 mM MgCl2, 10 mM HEPES; pH 7.4 (adjusted with hydrochloric acid); sterile filtered). 5 μl medium was removed from plates by robotic manipulation, then 5 μL/well of sodium-free NHE buffer was added. After incubation for 2 min, this washing step was repeated once. Then, 5 μL/w of buffer was removed from plates and cells were incubated for 5 min at room temperature with 5 μL/w of MPdye Loading Solution (1× in Sodium-free NHE Buffer). Test compounds were added to the cells at final test concentrations between 50 μM and 1 nM (0.6 μL/well, final DMSO 0.6%, prepared in MPDye Loading Solution) and incubated for 5 min at room temperature.
Plates were analyzed with an in house CCD camera device using a λexc 510-545 nm/λem 565-625 nm filter. Fluorescence was detected for 15 sec (background measurement M1). Activity of Npt2a was triggered by addition of 2 μL/well of 30 mM Na+ and 1 mM phosphate (prepared in a mixture of NHE Buffer Na+ free and NHE Buffer 140 mM Na+). Fluorescence was followed for 2-3 min (depolarization measurement M2). Data was normalized to cell number and dye loading efficiency by calculating M2/M1. This quotient was plotted against test compound concentration. Graph Pad Prism or equivalent in house software was used to create sigmoidal dose-response curves (variable slope) and determine IC50 values.

| SMILES | IC50 [nM] |
| --- | --- |
| Cc1nn(-c2cc(Nc3c(C)c(-c4ccc(F)cc4)nn3CC3CC3)ncn2)c(C)c1Cl [Example 175, 6-(4-chloro-3,5-dimethyl-1H-pyrazol-1-yl)-N-[1-(cyclopropylmethyl)-3-(4-fluorophenyl)-4-methyl-1H-pyrazol-5-yl]pyrimidin-4-amine] | 14 |
| CCc1c(-c2ccc(F)cc2)n[nH]c1Nc1cc(-n2nc(C)cc2C)ncn1 [Example 13, 6-(3,5-dimethyl-1H-pyrazol-1-yl)-N-[4-ethyl-3-(4-fluorophenyl)-1H-pyrazol-5-yl]pyrimidin-4-amine] | 61.9 |
| Cc1nn(-c2cc(Nc3c(C)c(-c4ccc(OC(F)(F)F)cc4)nn3CC3CC3)ncn2)c(C)c1Cl [Example 310, 6-(4-chloro-3,5-dimethyl-1H-pyrazol-1-yl)-N-{1-(cyclopropylmethyl)-4-methyl-3-[4-(trifluoromethoxy)phenyl]-1H-pyrazol-5-yl}pyrimidin-4-amine] | 21 |
| Cc1nn(-c2cc(Nc3c(C)c(-c4ccc(OC(F)(F)F)cc4)nn3C)ncn2)c(C)c1C(C)(C)O [Example 377, 2-{1-[6-({1,4-dimethyl-3-[4-(trifluoromethoxy)phenyl]-1H-pyrazol-5-yl}amino)pyrimidin-4-yl]-3,5-dimethyl-1H-pyrazol-4-yl}propan-2-ol] | 205 |
| CNc1ccc(-c2nn(CC3CC3)c(Nc3cc(-n4nc(C)cc4C(F)F)ncn3)c2C)cc1 [Example 487, N-{1-(cyclopropylmethyl)-4-methyl-3-[4-(methylamino)phenyl]-1H-pyrazol-5-yl}-6-[5-(difluoromethyl)-3-methyl-1H-pyrazol-1-yl]pyrimidin-4-amine] | 150 |
| CCOC(=O)Cc1c(C)nn(-c2cc(Nc3c(C)c(-c4ccc(F)cc4)nn3CC3CC3)ncn2)c1C [Example 281, ethyl [1-(6-{[1-(cyclopropylmethyl)-3-(4-fluorophenyl)-4-methyl-1H-pyrazol-5-yl]amino}pyrimidin-4-yl)-3,5-dimethyl-1H-pyrazol-4-yl]acetate] | 16 |
| Cc1nn(-c2ccc(F)cc2)c(C)c1Nc1cc(-n2nc3ccccc3c2C)ncn1 [Example 103, N-[1-(4-fluorophenyl)-3,5-dimethyl-1H-pyrazol-4-yl]-6-(3-methyl-2H-indazol-2-yl)pyrimidin-4-amine] | 64 |
| Cc1cc(C)n(-c2cc(Nc3c(C)c(-c4ccc(C(F)F)cc4)nn3C)ncn2)n1 [Example 407, N-{3-[4-(difluoromethyl)phenyl]-1,4-dimethyl-1H-pyrazol-5-yl}-6-(3,5-dimethyl-1H-pyrazol-1-yl)pyrimidin-4-amine] | 29 |
| Cc1cc(C)n(-c2cc(Nc3c(Cl)c(-c4ccc(F)cc4)nn3CC(F)F)ncn2)n1 [Example 129, N-[4-chloro-1-(2,2-difluoroethyl)-3-(4-fluorophenyl)-1H-pyrazol-5-yl]-6-(3,5-dimethyl-1H-pyrazol-1-yl)pyrimidin-4-amine] | 78 |
| Cc1nn(-c2cc(Nc3c(C)c(-c4ccc(F)cc4)nn3CC3CC3)ncn2)c(C)c1C(O)C(F)F (racemic) [Example 392, (±)-1-[1-(6-{[1-(cyclopropylmethyl)-3-(4-fluorophenyl)-4-methyl-1H-pyrazol-5-yl]amino}pyrimidin-4-yl)-3,5-dimethyl-1H-pyrazol-4-yl]-2,2-difluoroethanol] | 18 |
| Cc1cc(C)n(-c2cc(Nc3c(C)c(-c4ccc(C#N)cc4)nn3CCC3CC3)ncn2)n1 [Example 198, 4-[1-(2-cyclopropylethyl)-5-{[6-(3,5-dimethyl-1H-pyrazol-1-yl)pyrimidin-4-yl]amino}-4-methyl-1H-pyrazol-3-yl]benzonitrile] | 12 |
| CCc1c(Nc2cc(-n3nc(C)c4ccccc43)ncn2)n[nH]c1-c1ccc(F)cc1 [Example 19, N-[4-ethyl-5-(4-fluorophenyl)-1H-pyrazol-3-yl]-6-(3-methyl-1H-indazol-1-yl)pyrimidin-4-amine] | 110 |
| Cc1ccc(-c2nn(CC3CC3)c(Nc3cc(-n4nc(C)c(Cl)c4C)ncn3)c2C)cn1 [Example 397, 6-(4-chloro-3,5-dimethyl-1H-pyrazol-1-yl)-N-[1-(cyclopropylmethyl)-4-methyl-3-(6-methylpyridin-3-yl)-1H-pyrazol-5-yl]pyrimidin-4-amine] | 92 |
| COCCn1nc(-c2ccc(C(F)F)cc2)c(C)c1Nc1cc(-n2nc(C)c(OC)c2C)ncn1 [Example 539, N-{3-[4-(difluoromethyl)phenyl]-1-(2-methoxyethyl)-4-methyl-1H-pyrazol-5-yl}-6-(4-methoxy-3,5-dimethyl-1H-pyrazol-1-yl)pyrimidin-4-amine] | 20 |
| CCc1c(Nc2cc(-n3nc4c(c3C)CCCC4)ncn2)nn(C)c1-c1ccc(F)cc1 [Example 46, N-[4-ethyl-5-(4-fluorophenyl)-1-methyl-1H-pyrazol-3-yl]-6-(3-methyl-4,5,6,7-tetrahydro-2H-indazol-2-yl)pyrimidin-4-amine] | 6.5 |
| CCc1c(-c2ccc(F)cc2)nn(CCOCc2ccccc2)c1Nc1cc(-n2nc(C)cc2C)ncn1 [Example 32, N-{1-[2-(benzyloxy)ethyl]-4-ethyl-3-(4-fluorophenyl)-1H-pyrazol-5-yl}-6-(3,5-dimethyl-1H-pyrazol-1-yl)pyrimidin-4-amine] | 690 |
| COc1c(-c2ccc(C#N)cc2)nn(CC2CC2)c1Nc1cc(-n2nc(C)c(C(C)OC)c2C)ncn1 (single isomer, unassigned) [Example 334, 4-{1-(cyclopropylmethyl)-4-methoxy-5-[(6-{4-[1-methoxyethyl]-3,5-dimethyl-1H-pyrazol-1-yl}pyrimidin-4-yl)amino]-1H-pyrazol-3-yl}benzonitrile] | 41 |
| CCc1c(Nc2cc(-n3nc(C)c(Cl)c3C(C)(C)O)ncn2)nn(C)c1-c1ccc(F)cc1 [Example 195, 2-[4-chloro-1-(6-{[4-ethyl-5-(4-fluorophenyl)-1-methyl-1H-pyrazol-3-yl]amino}pyrimidin-4-yl)-3-methyl-1H-pyrazol-5-yl]propan-2-ol] | 3 |
| CCc1c(Nc2cc(-n3nc(C)c4c3CCC4(C)O)ncn2)nn(C)c1-c1ccc(F)cc1 (racemic) [Example 146, (rac)-1-(6-{[4-ethyl-5-(4-fluorophenyl)-1-methyl-1H-pyrazol-3-yl]amino}pyrimidin-4-yl)-3,4-dimethyl-1,4,5,6-tetrahydrocyclopenta[c]pyrazol-4-ol] | 126 |
| CCc1c(-c2ccc(F)cc2)nn(Cc2nnn(C)n2)c1Nc1cc(-n2nc(C)cc2C)ncn1 [Example 388, 6-(3,5-dimethyl-1H-pyrazol-1-yl)-N-{4-ethyl-3-(4-fluorophenyl)-1-[(2-methyl-2H-tetrazol-5-yl)methyl]-1H-pyrazol-5-yl}pyrimidin-4-amine] | 64 |
| Cc1nn(-c2cc(Nc3c(C)nn(-c4ccc(C#N)cc4)c3C)ncn2)c(C(F)F)c1Cl [Example 200, 4-[4-({6-[4-chloro-5-(difluoromethyl)-3-methyl-1H-pyrazol-1-yl]pyrimidin-4-yl}amino)-3,5-dimethyl-1H-pyrazol-1-yl]benzonitrile] | 8 |
